According to patent US20140271499A1, “ARTICLE AND METHOD OF INITIATING BONE REGROWTH AND RESTORATION OF GUM RECESSION WITH LOCALIZED SUBGINGIVAL DELIVERY OF MEDICATIONS” (priority 2013, published 2014):
“Also recorded” adds a separate entry of the source.

Tests used:
osteoclasts = test: Initial study of osteoclastic and osteoblastic activity on exposure to doxycycline; type: cell-based; settings: exposed to doxycycline
From the text: Doxycycline bonds to internal and external calcium ions causing osteoclasts to detach from the bone, thus decreasing or stopping bone loss. […] The stoppage of bone loss and the maintenance of bone regeneration results in a net gain of new bone over time as long as the doxycycline is continually delivered to the bone/tissue interface with the currently disclosed method.

alveolar bone = test: Clinical cases: topical tray delivery to the periodontal pocket, alveolar bone and gingival tissue regrowth; type: in vivo, patient
From the text: (§1) One exemplary method will now be described. An initial examination determines the conditions of the patient's periodontal disease. Models of the patient along with their periodontal probing is forwarded to a laboratory registered to make the custom formed medical device (Perio Tray), which is capable of delivering about 1.7% hydrogen peroxide gel (Perio Gel) to the diseased tissue. […] The depth of the biofilm and the tissue damage that exist determines the frequency and duration of usage. Patients with severe tissue damage (6 mm or greater) use the Perio Tray about 4 times a day. Patients with moderate damage (3 mm to 6 mm) use the Perio Tray about 3 times a day and patients maintain their health using the trays once or twice a day for about 15 minutes.
After the photographs of FIGS. 12A, 14A, 16A, and 18A were taken in 2004, the patient began a treatment as described above that included regular direct/topical medication delivery to the a to the gingival sulcus and/or periodontal pocket 37 in 2004 delivering doxycycline subgingival and interproximal with the medicament delivery tray.
The fact teeth appear longer as we age is supported in the literature. This is explained as a greater action of osteoclasts as compared to the cellular activity of osteoblasts with a resultant decrease in alveolar bone 40B around the patient's teeth 10 with an accompanying loss of gingival tissue 24B appearing as receding gum tissue 24B and the exposure of a greater root surface making the teeth 10 appear longer.

oral biofilm = test: Penetration and eradication of oral biofilm by hydrogen peroxide gel
From the text: as §1

[1] = oxygen delivered directly to the tissues

Row | Compound | formation of new osteoclasts from osteoclastic precursor cells (osteoclasts) | osteoblastic activity (osteoclasts) | osteoclastic activity (osteoclasts) | tooth mobility (alveolar bone; case studies, direct delivery to the periodontal pocket) | formation of new osteoclasts by precursor cells (alveolar bone; clinic tests) | bone loss and bone regeneration (alveolar bone; delivery to gingival sulcus or periodontal pocket) | attachment of osteoclasts to bone (alveolar bone; lengthy clinic tests) | cellular activity of osteoblasts (alveolar bone; lengthy clinic tests) | alveolar bone (radiographs) (alveolar bone; patient treated 1976 to 2012, hydrogen peroxide and topically applied doxycycline) | kill of biofilm bacteria (oral biofilm) [%] | eradication of biofilm bacteria (biofilm bacteria; in 14 to 17 days) [%] | time to bring to an end the facultative anaerobes (biofilm bacteria; [1]) [days] | time to kill the obligate anaerobes (biofilm bacteria; [1]) [days]
1 | C[C@H]1c2cccc(O)c2C(=O)C2=C(O)[C@]3(O)C(=O)C(C(N)=O)=C(O)[C@@H](N(C)C)[C@@H]3[C@@H](O)[C@@H]21 [doxycycline] | completely abrogated | augmentation | decrease | decrease | completely stopped; also recorded: completely abrogates | stops bone loss and augments bone regeneration | inhibit | maintain or increase | regrown and increased | – | – | – | –
2 | OO [hydrogen peroxide] | – | – | – | – | – | – | – | – | – | 99.999 | 99.98 | 7 | 2
